According to BindingDB's records for doi:10.1021/acs.jnatprod.6b00597 (Chang Gung Memorial Hospital, 2016):

Columns and labels:
[1] = Inhibition of human ABCB1 expressed in KBV1 cells assessed as potentiation of doxorubicin-induced cytotoxicity by measuring doxorubicin IC50 at 1000 nM after 72 hrs by MTT assay (Rvb = 5.07 +/- 0.19 uM)
[2] = Inhibition of human ABCB1 expressed in KBV1 cells assessed as potentiation of vincristine-induced cytotoxicity by measuring vincristine IC50 at 1000 nM after 72 hrs by MTT assay (Rvb = 277.68 +/- 56.61 nM)
[3] = Inhibition of human ABCB1 expressed in NCI-ADR-RES cells assessed as potentiation of doxorubicin-induced cytotoxicity by measuring doxorubicin IC50 at 1000 nM after 72 hrs by MTT assay (Rvb = 5.54 +/- 0.60 uM)
[4] = Inhibition of human ABCB1 transfected in HEK293 cells assessed as potentiation of doxorubicin-induced cytotoxicity by measuring doxorubicin IC50 at 1000 nM after 72 hrs by CCK8 assay (Rvb = 504.65 +/- 44.94 nM)
[5] = Inhibition of human ABCB1 expressed in NCI-ADR-RES cells assessed as potentiation of colchicine-induced cytotoxicity by measuring colchicine IC50 at 1000 nM after 72 hrs by MTT assay (Rvb = 1607.50 +/- 497.42 nM)
[6] = Inhibition of human ABCB1 expressed in NCI-ADR-RES cells assessed as potentiation of vincristine-induced cytotoxicity by measuring vincristine IC50 at 1000 nM after 72 hrs by MTT assay (Rvb = 3714.80 +/- 383.58 nM)
[7] = Inhibition of human ABCB1 expressed in KBV1 cells assessed as potentiation of doxorubicin-induced cytotoxicity by measuring doxorubicin IC50 at 50 nM after 72 hrs by MTT assay (Rvb = 5.07 +/- 0.19 uM)
[8] = Inhibition of human ABCB1 expressed in KBV1 cells assessed as potentiation of doxorubicin-induced cytotoxicity by measuring doxorubicin IC50 at 200 nM after 72 hrs by MTT assay (Rvb = 5.07 +/- 0.19 uM)
[9] = Inhibition of human ABCB1 expressed in KBV1 cells assessed as potentiation of doxorubicin-induced cytotoxicity by measuring doxorubicin IC50 at 100 nM after 72 hrs by MTT assay (Rvb = 5.07 +/- 0.19 uM)
[10] = Inhibition of human ABCB1 expressed in KBV1 cells assessed as potentiation of doxorubicin-induced cytotoxicity by measuring doxorubicin IC50 at 500 nM after 72 hrs by MTT assay (Rvb = 5.07 +/- 0.19 uM)
[11] = Inhibition of human ABCB1 expressed in KBV1 cells assessed as potentiation of colchicine-induced cytotoxicity by measuring colchicine IC50 at 500 nM after 72 hrs by MTT assay (Rvb = 487.57 +/- 30.54 nM)
[12] = Inhibition of human ABCB1 expressed in KBV1 cells assessed as potentiation of colchicine-induced cytotoxicity by measuring colchicine IC50 at 200 nM after 72 hrs by MTT assay (Rvb = 487.57 +/- 30.54 nM)
[13] = Inhibition of human ABCC1 transfected in HEK293 cells assessed as potentiation of etoposide-induced cytotoxicity by measuring etoposide IC50 at 500 nM after 72 hrs by CCK8 assay (Rvb = 38.54 +/- 5.62 nM)
[14] = Inhibition of human ABCB1 expressed in KBV1 cells assessed as potentiation of colchicine-induced cytotoxicity by measuring colchicine IC50 at 100 nM after 72 hrs by MTT assay (Rvb = 487.57 +/- 30.54 nM)
[15] = Inhibition of human ABCB1 expressed in KBV1 cells assessed as potentiation of vincristine-induced cytotoxicity by measuring vincristine IC50 at 50 nM after 72 hrs by MTT assay (Rvb = 277.68 +/- 56.61 nM)
[16] = Inhibition of human ABCB1 expressed in KBV1 cells assessed as potentiation of vincristine-induced cytotoxicity by measuring vincristine IC50 at 100 nM after 72 hrs by MTT assay (Rvb = 277.68 +/- 56.61 nM)
[17] = Inhibition of human ABCB1 expressed in KBV1 cells assessed as potentiation of vincristine-induced cytotoxicity by measuring vincristine IC50 at 200 nM after 72 hrs by MTT assay (Rvb = 277.68 +/- 56.61 nM)
[18] = Inhibition of human ABCB1 expressed in KBV1 cells assessed as potentiation of vincristine-induced cytotoxicity by measuring vincristine IC50 at 500 nM after 72 hrs by MTT assay (Rvb = 277.68 +/- 56.61 nM)
[19] = Inhibition of human ABCB1 expressed in NCI-ADR-RES cells assessed as potentiation of doxorubicin-induced cytotoxicity by measuring doxorubicin IC50 at 50 nM after 72 hrs by MTT assay (Rvb = 5.54 +/- 0.60 uM)
[20] = Inhibition of human ABCB1 expressed in NCI-ADR-RES cells assessed as potentiation of doxorubicin-induced cytotoxicity by measuring doxorubicin IC50 at 500 nM after 72 hrs by MTT assay (Rvb = 5.54 +/- 0.60 uM)
[21] = Inhibition of human ABCB1 expressed in NCI-ADR-RES cells assessed as potentiation of doxorubicin-induced cytotoxicity by measuring doxorubicin IC50 at 100 nM after 72 hrs by MTT assay (Rvb = 5.54 +/- 0.60 uM)
[22] = Inhibition of human ABCB1 transfected in HEK293 cells assessed as potentiation of doxorubicin-induced cytotoxicity by measuring doxorubicin IC50 at 50 nM after 72 hrs by CCK8 assay (Rvb = 504.65 +/- 44.94 nM)
[23] = Inhibition of human ABCB1 transfected in HEK293 cells assessed as potentiation of doxorubicin-induced cytotoxicity by measuring doxorubicin IC50 at 100 nM after 72 hrs by CCK8 assay (Rvb = 504.65 +/- 44.94 nM)
[24] = Inhibition of human ABCB1 expressed in NCI-ADR-RES cells assessed as potentiation of doxorubicin-induced cytotoxicity by measuring doxorubicin IC50 at 200 nM after 72 hrs by MTT assay (Rvb = 5.54 +/- 0.60 uM)
[25] = Inhibition of human ABCB1 transfected in HEK293 cells assessed as potentiation of doxorubicin-induced cytotoxicity by measuring doxorubicin IC50 at 200 nM after 72 hrs by CCK8 assay (Rvb = 504.65 +/- 44.94 nM)
[26] = Inhibition of human ABCB1 expressed in NCI-ADR-RES cells assessed as potentiation of colchicine-induced cytotoxicity by measuring colchicine IC50 at 50 nM after 72 hrs by MTT assay (Rvb = 1607.50 +/- 497.42 nM)
[27] = Inhibition of human ABCB1 expressed in NCI-ADR-RES cells assessed as potentiation of colchicine-induced cytotoxicity by measuring colchicine IC50 at 100 nM after 72 hrs by MTT assay (Rvb = 1607.50 +/- 497.42 nM)
[28] = Inhibition of human ABCB1 expressed in NCI-ADR-RES cells assessed as potentiation of colchicine-induced cytotoxicity by measuring colchicine IC50 at 500 nM after 72 hrs by MTT assay (Rvb = 1607.50 +/- 497.42 nM)
[29] = Inhibition of human ABCB1 expressed in NCI-ADR-RES cells assessed as potentiation of colchicine-induced cytotoxicity by measuring colchicine IC50 at 200 nM after 72 hrs by MTT assay (Rvb = 1607.50 +/- 497.42 nM)
[30] = Inhibition of human ABCB1 expressed in NCI-ADR-RES cells assessed as potentiation of vincristine-induced cytotoxicity by measuring vincristine IC50 at 50 nM after 72 hrs by MTT assay (Rvb = 3714.80 +/- 383.58 nM)
[31] = Inhibition of human ABCB1 expressed in NCI-ADR-RES cells assessed as potentiation of vincristine-induced cytotoxicity by measuring vincristine IC50 at 100 nM after 72 hrs by MTT assay (Rvb = 3714.80 +/- 383.58 nM)
[32] = Inhibition of human ABCB1 expressed in NCI-ADR-RES cells assessed as potentiation of vincristine-induced cytotoxicity by measuring vincristine IC50 at 500 nM after 72 hrs by MTT assay (Rvb = 3714.80 +/- 383.58 nM)
[33] = Inhibition of human ABCB1 expressed in NCI-ADR-RES cells assessed as potentiation of vincristine-induced cytotoxicity by measuring vincristine IC50 at 200 nM after 72 hrs by MTT assay (Rvb = 3714.80 +/- 383.58 nM)

COc1cc2c(cc1OC)CN(CCc1ccc(NC(=O)c3cc(OC)c(OC)cc3NC(=O)c3cnc4ccccc4c3)cc1)CC2
IC50 [1]: 70 nM | IC50 [2]: 0.66 nM | IC50 [3]: 240 nM | IC50 [4]: 25 nM | IC50 [5]: 25 nM | IC50 [6]: 19 nM

COc1ccc2cc1Oc1ccc(cc1)C[C@H]1c3cc(c(OC)cc3CCN1C)Oc1c(OC)c(OC)c(OC)c3c1[C@H](C2)N(C)CC3 [CHEBI:5677]
IC50 [7]: 1420 nM | IC50 [8]: 280 nM | IC50 [9]: 700 nM | IC50 [10]: 100 nM | IC50 [11]: 32 nM | IC50 [12]: 118 nM | IC50 [13]: 38300 nM | IC50 [14]: 188 nM | IC50 [15]: 205 nM | IC50 [16]: 100 nM | IC50 [17]: 21 nM | IC50 [18]: 1.6 nM | IC50 [19]: 2810 nM | IC50 [20]: 230 nM | IC50 [21]: 1310 nM | IC50 [22]: 109 nM | IC50 [23]: 76 nM | IC50 [24]: 550 nM | IC50 [25]: 44 nM | IC50 [26]: 1010 nM | IC50 [27]: 571 nM | IC50 [28]: 79 nM | IC50 [29]: 224 nM | IC50 [30]: 3220 nM | IC50 [31]: 2660 nM | IC50 [32]: 115 nM | IC50 [33]: 970 nM
